Measurements as given in patent publication US20250186408A1, “TREATMENT OF PHARMACORESISTANT EPILEPSY” (Katholieke Universiteit Leuven, priority 2021, published 2025).
Read-outs that look alike come from different tables or passages of the source.

Columns and labels:
EDNRA = molecular target: T1, EDNRA (Homo sapiens, UniProt P25101); test: Calcium Flux EDNRA Antagonist; type: cell-based; conditions: for IC50: read-out: RC50, result type IC50; for Emax: read-out: Max response
T1 sequence (P25101 21-427): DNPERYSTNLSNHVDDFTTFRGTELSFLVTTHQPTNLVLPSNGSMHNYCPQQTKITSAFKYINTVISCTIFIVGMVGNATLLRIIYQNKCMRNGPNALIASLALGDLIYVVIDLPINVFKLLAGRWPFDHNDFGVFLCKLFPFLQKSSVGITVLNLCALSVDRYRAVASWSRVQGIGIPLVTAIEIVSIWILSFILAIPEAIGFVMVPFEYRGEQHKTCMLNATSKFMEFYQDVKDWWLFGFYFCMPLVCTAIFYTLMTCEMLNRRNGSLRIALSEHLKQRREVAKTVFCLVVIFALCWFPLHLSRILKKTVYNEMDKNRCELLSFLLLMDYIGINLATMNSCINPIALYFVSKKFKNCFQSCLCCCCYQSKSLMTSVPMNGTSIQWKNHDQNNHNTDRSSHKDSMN
Description: (≤0.2% DMSO concentration). Assays were performed in 1× dye loading buffer consisting of 1× Dye (DiscoverX, Calcium No Wash^PLUS kit, Catalog No. 90-0091), 1× Additive A and 2.5 mM Probenecid in HBSS/20 mM HEPES. Probenecid was prepared fresh. Prior to testing, media was aspirated from cells and replaced with 25 μL dye loading buffer. Cells were incubated for 45 min at 37° C. and then 20 min at RT. For agonist determination, 25 μL of 2× compound in HBSS/20 mM HEPES was added using a FLIPR Tetra (MDS). […] 25 μL of 2× sample was added and cells were incubated for 30 min at RT in the dark to equilibrate plate temperature. After incubation, antagonist determination was initiated by addition of 25 μL of 1× compound with 3×EC80 agonist using FLIPR. For both agonist and antagonist formats, activity was measure on a FLIPR Tetra (MDS). Calcium mobilization was monitored for 2 min with a 5 sec baseline read.
FLIPR read—Area under the curve, was calculated for the entire 2 min read.

INSR = molecular target: T2, INSR (Homo sapiens, UniProt P06213); test: Binding (KINOMEscan) INSR Inhibitor; conditions: for IC50: read-out: RC50, result type IC50; for Emax: read-out: Max response
T2 construct: purchased Eurofins DiscoverX Corporation 87-1003DR; host or cells: E. coli BL21-derived host (T7 phage) or HEK-293
T2 sequence (P06213 28-1382): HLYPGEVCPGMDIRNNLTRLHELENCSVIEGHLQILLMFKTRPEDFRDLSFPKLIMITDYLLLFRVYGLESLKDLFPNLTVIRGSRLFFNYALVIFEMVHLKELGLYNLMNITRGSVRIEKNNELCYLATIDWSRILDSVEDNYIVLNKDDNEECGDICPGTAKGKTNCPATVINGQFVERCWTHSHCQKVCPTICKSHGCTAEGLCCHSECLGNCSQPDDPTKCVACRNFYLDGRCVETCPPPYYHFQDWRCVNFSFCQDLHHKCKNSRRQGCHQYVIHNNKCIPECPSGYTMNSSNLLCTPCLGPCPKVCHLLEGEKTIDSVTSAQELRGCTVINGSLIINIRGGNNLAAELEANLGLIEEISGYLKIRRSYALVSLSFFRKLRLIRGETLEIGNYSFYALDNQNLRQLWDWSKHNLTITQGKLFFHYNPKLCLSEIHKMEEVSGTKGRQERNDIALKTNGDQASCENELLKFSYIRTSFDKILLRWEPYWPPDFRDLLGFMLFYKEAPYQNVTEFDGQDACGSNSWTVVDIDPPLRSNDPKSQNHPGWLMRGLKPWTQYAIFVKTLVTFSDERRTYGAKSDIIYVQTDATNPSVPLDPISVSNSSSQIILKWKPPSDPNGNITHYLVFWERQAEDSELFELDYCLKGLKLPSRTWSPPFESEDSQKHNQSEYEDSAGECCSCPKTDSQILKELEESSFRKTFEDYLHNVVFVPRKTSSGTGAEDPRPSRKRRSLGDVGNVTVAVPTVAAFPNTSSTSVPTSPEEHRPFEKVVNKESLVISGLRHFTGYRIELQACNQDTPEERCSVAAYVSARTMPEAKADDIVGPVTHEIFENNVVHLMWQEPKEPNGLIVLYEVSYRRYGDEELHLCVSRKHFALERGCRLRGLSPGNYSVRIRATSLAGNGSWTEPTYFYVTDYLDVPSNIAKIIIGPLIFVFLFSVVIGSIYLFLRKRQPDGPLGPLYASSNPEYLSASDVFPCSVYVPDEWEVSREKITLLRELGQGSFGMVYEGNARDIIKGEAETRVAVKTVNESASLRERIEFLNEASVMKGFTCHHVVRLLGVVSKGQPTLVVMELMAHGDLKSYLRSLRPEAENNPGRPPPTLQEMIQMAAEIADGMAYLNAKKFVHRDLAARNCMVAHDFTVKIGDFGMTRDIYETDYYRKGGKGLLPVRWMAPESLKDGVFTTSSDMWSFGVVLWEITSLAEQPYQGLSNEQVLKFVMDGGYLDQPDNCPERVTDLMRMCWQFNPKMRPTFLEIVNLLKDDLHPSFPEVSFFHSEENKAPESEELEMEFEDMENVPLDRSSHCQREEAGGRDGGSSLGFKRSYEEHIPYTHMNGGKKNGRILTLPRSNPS
Description: For most assays, kinase-tagged T7 phage strains were grown in parallel in 24-well blocks in an E. coli host derived from the BL21 strain. E. coli were grown to log-phase and infected with T7 phage from a frozen stock (multiplicity of infection=0.4) and incubated with shaking at 32° C. until lysis (90-150 min). The lysates were centrifuged (6,000×g) and filtered (0.2 μm) to remove cell debris. The remaining kinases were produced in HEK-293 cells and subsequently tagged with DNA for qPCR detection. Streptavidin-coated magnetic beads were treated with biotinylated small molecule ligands for 30 min at RT to generate affinity resins for kinase assays. The liganded beads were blocked with excess biotin and washed with blocking buffer (SeaBlock (Pierce), 1% BSA, 0.05% Tween 20, 1 mM DTT) to remove unbound ligand and to reduce non-specific phage binding. […] All reactions were performed in polypropylene 384-well plates in a final volume of 0.02 mL. […] The beads were then re-suspended in elution buffer (1×PBS, 0.05% Tween 20, 0.5 μM non-biotinylated affinity ligand) and incubated at RT with shaking for 30 min. The kinase concentration in the eluates was measured by qPCR.
The kinase concentration in the eluates was measured by qPCR. qPCR reactions were assembled by adding 2.5 μL of kinase eluate to 7.5 μL of qPCR master mix containing 0.15 μM amplicon primers and 0.15 μM amplicon probe. The qPCR protocol consisted of a 10 min hot start at 95° C., followed by 35 cycles of 95° C. for 15 sec, 60° C. for 1 min.
Binding constants (Kds) were calculated with a standard dose-response curve using the Hill equation: […]

HTR1A = molecular target: T3, HTR1A (Homo sapiens, UniProt P08908); test: cAMP HTR1A Agonist; conditions: for Emax: read-out: Max response
T3 sequence (P08908 1-422): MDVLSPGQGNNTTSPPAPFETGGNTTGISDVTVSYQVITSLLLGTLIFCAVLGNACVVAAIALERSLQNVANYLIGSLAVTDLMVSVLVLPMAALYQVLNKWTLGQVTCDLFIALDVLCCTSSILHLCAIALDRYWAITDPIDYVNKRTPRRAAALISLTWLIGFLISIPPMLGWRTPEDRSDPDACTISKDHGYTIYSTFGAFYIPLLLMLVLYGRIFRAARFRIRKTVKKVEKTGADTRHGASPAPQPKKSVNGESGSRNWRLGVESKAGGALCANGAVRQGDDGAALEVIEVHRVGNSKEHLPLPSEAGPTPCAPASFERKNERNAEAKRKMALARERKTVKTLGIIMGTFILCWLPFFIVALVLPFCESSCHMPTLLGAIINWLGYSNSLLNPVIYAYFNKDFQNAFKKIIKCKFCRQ
Description: (§1) In vitro pharmacological profiling of compounds was done against 78 functional assays for 47 common off-targets (30) by Eurofins DiscoverX Corporation (Fremont, CA, USA) using their SAFETYscan E/IC50 ELECT service (Cat Ref 87-1003DR, Safety47 Panel Dose Response). […] Compounds were tested in a range of 10 concentrations, following a 3-fold serial dilution, starting from 10 μM.
(§2) cAMP Hunter cell lines were expanded from freezer stocks. Prior to testing, cells were seeded in a total volume of 20 μL into white walled 384-well microplates and incubated at 37° C. cAMP modulation was determined using the DiscoverX HitHunter cAMP XS+ assay. For Gs agonist determination, cells were incubated with sample to induce response. For Gi agonist determination, cells were incubated with sample in the presence of EC80 forskolin to induce response. For both conditions, media was aspirated from cells and replaced with 15 μL 2:1 HBSS/10 mM HEPES:cAMP XS+ Ab reagent. Intermediate dilution of sample stocks was performed to generate 4× sample in assay buffer (containing 4×EC80 forskolin in the case of antagonist determination). 5 μL of 4× sample was added to cells and incubated at 37° C. or room temperature (RT) for 30 or 60 min. Final assay vehicle concentration was 1%. For antagonist determination, cells were pre-incubated with sample followed by agonist challenge at the EC80 concentration. Media was aspirated from cells and replaced with 10 μL 1:1 HBSS/HEPES:cAMP XS+ Ab reagent. 5 μL of 4× compound was added to the cells and incubated at 37° C. or RT for 30 min. 5 μL of 4×EC80 agonist was added to the cells and incubated at 37° C. or RT for 30 or 60 min. For Gi coupled GPCRs, EC80 forskolin was included. […] Microplates were read following signal generation with a PerkinElmer Envision™ instrument for chemiluminescent signal detection. Compound activity was analyzed using CBIS data analysis suite (ChemInnovation, CA).

CHRM2 = molecular target: T4, CHRM2 (Homo sapiens, UniProt P08172); test: cAMP CHRM2 Agonist; conditions: for Emax: read-out: Max response
T4 sequence (P08172 1-466): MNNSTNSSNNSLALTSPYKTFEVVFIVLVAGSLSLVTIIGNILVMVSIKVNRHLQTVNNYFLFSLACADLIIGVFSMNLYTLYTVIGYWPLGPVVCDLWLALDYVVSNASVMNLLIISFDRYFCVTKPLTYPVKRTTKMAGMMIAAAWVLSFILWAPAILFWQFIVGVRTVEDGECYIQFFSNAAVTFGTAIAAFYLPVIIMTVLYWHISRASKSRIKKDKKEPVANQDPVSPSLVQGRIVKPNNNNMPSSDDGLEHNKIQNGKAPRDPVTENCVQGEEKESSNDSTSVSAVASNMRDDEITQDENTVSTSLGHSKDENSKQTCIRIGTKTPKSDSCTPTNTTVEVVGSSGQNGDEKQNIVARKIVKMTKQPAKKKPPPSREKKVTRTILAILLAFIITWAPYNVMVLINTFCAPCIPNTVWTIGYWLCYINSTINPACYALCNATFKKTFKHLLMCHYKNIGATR
Description: In vitro pharmacological profiling of compounds was done against 78 functional assays for 47 common off-targets (30) by Eurofins DiscoverX Corporation (Fremont, CA, USA) using their SAFETYscan E/IC50 ELECT service (Cat Ref 87-1003DR, Safety47 Panel Dose Response). […] Compounds were tested in a range of 10 concentrations, following a 3-fold serial dilution, starting from 10 μM. The assays were performed utilizing the PathHunter enzyme fragment complementation (EFC) technology, FLIPR®-based cellular screening assays, and KINOMEscan kinase binding assays.
as §2

HTR1B = HTR1B (Homo sapiens, UniProt P28222); test: cAMP HTR1B Antagonist; conditions: for Emax: read-out: Max response
HTR1B, sequence (P28222 whole entry): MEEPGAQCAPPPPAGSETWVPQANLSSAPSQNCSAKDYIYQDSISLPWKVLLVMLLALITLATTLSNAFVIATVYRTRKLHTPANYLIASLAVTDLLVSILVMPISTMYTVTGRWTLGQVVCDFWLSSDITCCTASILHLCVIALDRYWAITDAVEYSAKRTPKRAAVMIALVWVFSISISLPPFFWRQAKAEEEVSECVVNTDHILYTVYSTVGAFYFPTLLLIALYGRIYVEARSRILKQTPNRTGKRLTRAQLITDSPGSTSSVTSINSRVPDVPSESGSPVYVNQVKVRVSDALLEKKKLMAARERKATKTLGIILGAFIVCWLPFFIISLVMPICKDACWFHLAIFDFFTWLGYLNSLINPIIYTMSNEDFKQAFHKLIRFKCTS
Description: as §1, §2

CC(C)(C)c1ccc(C#CC(O)c2ccccc2)cc1 (racemic) [Compound 3.3, rac-3-(4-(tert-butyl)phenyl)-1-phenylprop-2-yn-1-ol]
IC50 (EDNRA; Calcium Flux EDNRA Antagonist): > 10 µM | Emax (EDNRA): 0% | IC50 (INSR; Binding INSR Inhibitor): > 10 µM | Emax (INSR): 10.3% | EC50 (HTR1A): > 10 µM | Emax (HTR1A): 0% | EC50 (CHRM2): > 10 µM | Emax (CHRM2): 0% | IC50 (HTR1B): 6.4 µM | Emax (HTR1B): 66.2%

Clc1cccc(C#Cc2n[nH]c3ncccc23)c1 [Compound 10.1, 3-((3-chlorophenyl)ethynyl)-1H-pyrazolo[3,4-b]pyridine]
Emax (EDNRA; Calcium Flux EDNRA Antagonist): 0% | IC50 (EDNRA; Calcium Flux EDNRA Antagonist): > 10 µM | Emax (INSR; Binding INSR Inhibitor): 0% | IC50 (INSR; Binding INSR Inhibitor): > 10 µM | EC50 (HTR1A): > 10 µM | Emax (HTR1A): 9.1% | EC50 (CHRM2): > 10 µM | Emax (CHRM2): 32.5% | IC50 (HTR1B): > 10 µM | Emax (HTR1B): 0%
